The source of these data is patent publication US8349215B2, “Corrosion inhibitors having increased biological degradability and minimized toxicity” (Clariant Finance (BVI) Limited, priority 2008, dated 2013).

The subject of one series is Skeletonema costatum. Description: Toxicity (EC50 Skeletonema costatum). The class given is cell-based.
Series [1] in a line: Biodegradability (OECD 306).

With `CCCCCCCCN1CC(C(=O)O)CC1=O.NCCO` (stereo not shown) [Compound from example 1, N-octyl-5-oxopyrrolidine-3-carboxylic acid monoethanolammonium salt], the “Toxicity EC50” value with Skeletonema costatum is greater than 100 µg/mL. In series [1], this compound came in with a Biodegradability of 85%.
The like results for `CCCCCCCC/C=C\CCCCCCCCN1CC(C(=O)O)CC1=O.NCCO` (stereo not shown) [Compound from example 5, N-oleyl-5-oxopyrrolidine-3-carboxylic acid monoethanolammonium salt] were, in that order, greater than 100 µg/mL and 78%.
